Positions of bridges follow the written chain, without caps; N, C: chain ends. Non-standard residues stand in square brackets, D forms with d. Residues, ends and D or L forms follow the SMILES beside them. Phe(3-F) = N[C@@H](Cc1cccc(F)c1)C(=O)O; AllylGly = C=CC[C@H](N)C(=O)O; Ac4c = NC1(C(=O)O)CCC1
How the values were obtained:
[1] = biological target: T1, Menin/Histone-lysine N-methyltransferase MLL (Homo sapiens, UniProt O00255); assay: Inhibition of Menin-MLL protein-protein interaction (unknown origin) preincubated for 1 hr in presence of FLSN-MLL4-43 peptide followed by compound addition and measured after 1 hr by fluorescence polarization assay
[2] = biological target: T1, Menin/Histone-lysine N-methyltransferase MLL; assay: Inhibition of Menin-MLL protein-protein interaction (unknown origin) preincubated for 1 hr in presence of FLSN-MBM1 peptide followed by compound addition and measured after 1 hr by fluorescence polarization assay

T1 sequence (O00255 whole entry): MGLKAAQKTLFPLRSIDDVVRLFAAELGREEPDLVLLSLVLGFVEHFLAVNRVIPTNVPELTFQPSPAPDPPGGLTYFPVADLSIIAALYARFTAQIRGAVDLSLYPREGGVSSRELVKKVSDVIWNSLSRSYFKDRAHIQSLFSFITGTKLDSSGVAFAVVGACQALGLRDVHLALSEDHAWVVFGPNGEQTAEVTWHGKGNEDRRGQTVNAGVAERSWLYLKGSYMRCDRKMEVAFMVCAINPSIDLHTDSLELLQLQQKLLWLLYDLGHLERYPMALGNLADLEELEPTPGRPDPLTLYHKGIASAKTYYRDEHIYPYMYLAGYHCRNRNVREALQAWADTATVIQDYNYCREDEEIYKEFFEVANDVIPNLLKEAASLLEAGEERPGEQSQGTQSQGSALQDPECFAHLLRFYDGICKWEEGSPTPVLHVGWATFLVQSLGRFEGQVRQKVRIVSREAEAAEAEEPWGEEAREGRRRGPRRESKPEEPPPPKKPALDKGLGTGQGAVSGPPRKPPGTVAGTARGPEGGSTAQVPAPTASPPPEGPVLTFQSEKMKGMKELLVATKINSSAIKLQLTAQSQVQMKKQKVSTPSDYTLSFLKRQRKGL
T1 sequence (Q03164 1-2718 partner limits assumed): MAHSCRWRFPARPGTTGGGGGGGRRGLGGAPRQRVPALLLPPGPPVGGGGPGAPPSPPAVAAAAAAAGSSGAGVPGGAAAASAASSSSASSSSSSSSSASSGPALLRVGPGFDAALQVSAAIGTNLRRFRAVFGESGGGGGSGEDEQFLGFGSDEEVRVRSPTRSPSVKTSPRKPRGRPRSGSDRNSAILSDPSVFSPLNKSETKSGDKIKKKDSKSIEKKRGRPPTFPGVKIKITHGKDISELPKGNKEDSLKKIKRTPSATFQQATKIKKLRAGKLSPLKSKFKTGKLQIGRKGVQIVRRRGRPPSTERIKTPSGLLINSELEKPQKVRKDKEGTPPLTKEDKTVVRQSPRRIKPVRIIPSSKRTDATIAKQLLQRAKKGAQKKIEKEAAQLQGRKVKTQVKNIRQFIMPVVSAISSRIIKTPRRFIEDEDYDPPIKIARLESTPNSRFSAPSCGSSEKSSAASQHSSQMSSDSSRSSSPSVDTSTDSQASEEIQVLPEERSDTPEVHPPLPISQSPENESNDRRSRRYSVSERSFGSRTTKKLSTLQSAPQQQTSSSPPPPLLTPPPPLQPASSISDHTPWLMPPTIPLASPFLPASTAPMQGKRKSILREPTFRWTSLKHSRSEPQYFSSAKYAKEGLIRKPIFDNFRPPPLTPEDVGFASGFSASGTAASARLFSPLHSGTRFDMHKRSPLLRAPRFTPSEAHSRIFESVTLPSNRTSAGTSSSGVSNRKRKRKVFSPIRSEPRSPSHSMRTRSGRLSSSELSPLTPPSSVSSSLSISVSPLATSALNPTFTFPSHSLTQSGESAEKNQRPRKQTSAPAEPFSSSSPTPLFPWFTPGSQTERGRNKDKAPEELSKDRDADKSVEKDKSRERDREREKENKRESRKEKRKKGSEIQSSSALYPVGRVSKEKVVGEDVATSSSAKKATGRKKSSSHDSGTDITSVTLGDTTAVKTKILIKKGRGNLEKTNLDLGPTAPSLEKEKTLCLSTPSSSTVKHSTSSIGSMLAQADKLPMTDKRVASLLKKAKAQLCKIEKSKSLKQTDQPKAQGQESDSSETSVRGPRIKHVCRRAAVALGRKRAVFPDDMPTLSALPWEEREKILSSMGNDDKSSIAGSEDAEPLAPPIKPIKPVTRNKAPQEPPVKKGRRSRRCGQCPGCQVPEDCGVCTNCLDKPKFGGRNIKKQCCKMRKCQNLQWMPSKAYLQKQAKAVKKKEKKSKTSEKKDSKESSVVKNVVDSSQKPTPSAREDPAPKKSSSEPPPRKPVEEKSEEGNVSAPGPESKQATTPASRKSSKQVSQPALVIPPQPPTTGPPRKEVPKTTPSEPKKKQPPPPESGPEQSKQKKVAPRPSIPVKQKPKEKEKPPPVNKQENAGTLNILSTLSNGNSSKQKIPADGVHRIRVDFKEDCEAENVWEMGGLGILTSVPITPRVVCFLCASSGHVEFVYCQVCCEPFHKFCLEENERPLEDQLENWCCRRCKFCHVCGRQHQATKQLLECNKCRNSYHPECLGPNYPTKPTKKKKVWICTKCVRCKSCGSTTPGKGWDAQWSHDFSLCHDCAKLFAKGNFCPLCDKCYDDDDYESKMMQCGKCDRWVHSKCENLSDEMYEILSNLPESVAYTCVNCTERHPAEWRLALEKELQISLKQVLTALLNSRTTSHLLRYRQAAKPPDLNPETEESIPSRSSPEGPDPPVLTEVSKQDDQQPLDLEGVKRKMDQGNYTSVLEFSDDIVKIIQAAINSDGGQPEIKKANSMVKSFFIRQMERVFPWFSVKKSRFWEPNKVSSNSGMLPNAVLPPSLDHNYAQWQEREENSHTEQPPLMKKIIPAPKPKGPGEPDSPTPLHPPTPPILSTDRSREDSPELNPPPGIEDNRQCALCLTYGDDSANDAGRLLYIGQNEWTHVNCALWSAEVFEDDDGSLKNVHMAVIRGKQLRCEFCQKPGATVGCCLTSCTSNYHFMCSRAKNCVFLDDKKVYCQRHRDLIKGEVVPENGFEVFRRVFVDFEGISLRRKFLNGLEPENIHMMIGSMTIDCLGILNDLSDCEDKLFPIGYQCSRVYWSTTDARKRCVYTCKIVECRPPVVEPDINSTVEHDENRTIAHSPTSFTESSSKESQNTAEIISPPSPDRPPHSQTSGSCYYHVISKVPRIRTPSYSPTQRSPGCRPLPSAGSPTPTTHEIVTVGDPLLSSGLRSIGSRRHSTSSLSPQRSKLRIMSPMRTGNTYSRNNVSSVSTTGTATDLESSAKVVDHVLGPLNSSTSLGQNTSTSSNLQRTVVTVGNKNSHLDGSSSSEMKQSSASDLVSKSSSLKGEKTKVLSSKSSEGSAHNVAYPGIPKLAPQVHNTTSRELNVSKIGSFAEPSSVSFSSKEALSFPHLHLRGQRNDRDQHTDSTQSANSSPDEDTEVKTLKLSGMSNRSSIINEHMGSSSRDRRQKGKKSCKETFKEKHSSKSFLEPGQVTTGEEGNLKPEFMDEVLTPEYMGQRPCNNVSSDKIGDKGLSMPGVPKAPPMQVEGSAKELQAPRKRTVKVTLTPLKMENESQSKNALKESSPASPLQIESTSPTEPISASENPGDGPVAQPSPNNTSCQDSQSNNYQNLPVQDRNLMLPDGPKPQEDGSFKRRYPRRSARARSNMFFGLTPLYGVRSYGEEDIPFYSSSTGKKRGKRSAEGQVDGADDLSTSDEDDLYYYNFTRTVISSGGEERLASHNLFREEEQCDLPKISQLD
T1 sequence (Q03164 2719-3969 partner limits assumed): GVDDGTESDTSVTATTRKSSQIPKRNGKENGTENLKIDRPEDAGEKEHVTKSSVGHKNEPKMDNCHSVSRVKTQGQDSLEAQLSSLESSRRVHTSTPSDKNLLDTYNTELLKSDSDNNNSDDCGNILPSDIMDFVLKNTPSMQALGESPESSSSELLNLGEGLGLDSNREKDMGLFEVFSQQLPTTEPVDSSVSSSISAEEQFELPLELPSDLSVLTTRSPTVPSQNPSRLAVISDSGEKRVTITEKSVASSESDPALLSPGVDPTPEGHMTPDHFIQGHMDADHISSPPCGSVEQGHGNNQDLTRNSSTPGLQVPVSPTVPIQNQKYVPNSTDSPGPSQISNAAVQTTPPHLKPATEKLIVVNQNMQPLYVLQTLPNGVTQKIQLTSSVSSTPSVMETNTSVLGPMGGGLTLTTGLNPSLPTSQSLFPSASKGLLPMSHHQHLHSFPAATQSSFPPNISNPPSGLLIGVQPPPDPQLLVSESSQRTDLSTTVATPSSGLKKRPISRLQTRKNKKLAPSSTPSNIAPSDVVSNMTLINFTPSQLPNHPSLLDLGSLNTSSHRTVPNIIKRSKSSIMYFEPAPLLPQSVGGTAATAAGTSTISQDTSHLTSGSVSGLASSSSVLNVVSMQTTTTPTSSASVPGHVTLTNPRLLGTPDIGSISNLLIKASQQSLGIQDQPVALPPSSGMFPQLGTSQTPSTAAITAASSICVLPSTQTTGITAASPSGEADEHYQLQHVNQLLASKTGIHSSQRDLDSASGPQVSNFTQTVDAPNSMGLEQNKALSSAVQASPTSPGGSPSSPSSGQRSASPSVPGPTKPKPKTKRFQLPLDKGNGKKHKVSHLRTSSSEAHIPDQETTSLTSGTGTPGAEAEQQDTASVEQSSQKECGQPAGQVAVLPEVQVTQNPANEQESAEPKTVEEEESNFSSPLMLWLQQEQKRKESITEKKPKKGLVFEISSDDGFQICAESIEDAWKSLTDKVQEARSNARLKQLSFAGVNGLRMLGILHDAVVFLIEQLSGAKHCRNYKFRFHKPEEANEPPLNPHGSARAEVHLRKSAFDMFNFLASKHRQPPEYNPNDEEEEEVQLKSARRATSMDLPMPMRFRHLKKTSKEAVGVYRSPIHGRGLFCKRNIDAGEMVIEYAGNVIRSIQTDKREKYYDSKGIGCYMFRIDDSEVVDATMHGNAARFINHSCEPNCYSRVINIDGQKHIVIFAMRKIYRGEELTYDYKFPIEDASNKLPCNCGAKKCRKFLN

IC50 [1]: 657 nM
IC50 [2]: 64 nM
SMILES: CC(=O)N[C@@H](CO)C(=O)N[C@@H](C)C(=O)N[C@@H](CCCNC(=N)N)C(=O)N[C@@H](Cc1c[nH]c2ccccc12)C(=O)N[C@H]1C/C=C\C[C@@H](C(=O)N2CCC[C@H]2C(=O)N[C@@H](CCCNC(=N)N)C(N)=O)NC(=O)C2(CCC2)NC(=O)[C@@H]2CCCN2C(=O)[C@H](Cc2cccc(F)c2)NC1=O (Ac-SARW[AllylGly][Phe(3-F)]P[Ac4c][AllylGly]PR-NH2; staple (Z) 5-9)

— ChEMBL document CHEMBL4765443, “Covalent and noncovalent constraints yield a figure eight-like conformation of a peptide inhibiting the menin-MLL interaction” (Eur J Med Chem, 2020)
